Here are results for one compound from patent US20160279110A1, “COMPOSITIONS AND METHODS FOR TREATING CANCER” (UNIVERSITY OF ROCHESTER, priority 2015, published 2016).

The test has as its system NMD. As to the kind of experiment: mRNA/pre-mRNA ratio of NMD targets by RT-qPCR in MCF7 cells. The test is classed as cell-based, human. The following applies: MCF7, 5 μM doxorubicin. As to the method:
In FIG. 9a, MCF7 cells were treated with […] doxorubicin for the hours (h) indicated. mRNA-to-pre-mRNA ratios for the specified transcripts were measured using RT-qPCR and normalized to the ratio at 0 h, which is defined as 100%. The level of each pre-mRNA was also normalized to the level of GAPDH mRNA, and the normalized level at 0 h is defined as 100%. There are separate scales for the graphs of mRNA/pre-mRNA ratios (left) and the graphs of pre-mRNA/GAPDH mRNA ratios (right). Separately, MCF7 cells were transfected with plasmids encoding reporter β-Gl Norm mRNA or β-Gl Ter mRNA together with a plasmid encoding the reference MUP mRNA and subsequently exposed to doxorubicin (5 μM) for the times indicated. Reporter transcript levels were normalized to the level of MUP mRNA, and the normalized level of β-Gl Ter mRNA was presented as a percentage of the normalized level of β-Gl Norm mRNA, which is defined as 100% at 0 h. Error bars=S.E.M., asterisk=p<0.05 relative to the 0 h time point using the Student's t-test. #=pre-mRNA levels below qPCR detection threshold. n>3 independent biological replicates. […] HeLa and MCF7 cells were transfected with either control (Ctrl) siRNA or UPF1 siRNA, the latter to deplete endogenous UPF1 protein to less than 5% of the normal level (top western blots). mRNA/pre-mRNA ratios were then assessed using RT-qPCR as in FIG. 1a (bottom). Western blots derive from and are representative of 3 independent biological replicates used for the corresponding RT-qPCR analyses. Error bars=S.E.M., asterisk=p<0.05 relative to control siRNA using the Student's t-test. n=3 independent biological replicates.
Cells were homogenized, and RNA was purified using RNeasy mini kits (Qiagen). To ensure linearity of both reverse transcription (RT) and qPCR analyses, 17 standard concentrations were constructed using two-fold serial dilutions of total-cell RNA, beginning with 2 μg. Experimental sample input was 200 ng of RNA. RT was conducted using Superscript III (Invitrogen) according to manufacturer's directions and 100 ng of random hexamer (Invitrogen) in a 20 μl reaction volume. Thermal cycling was as follows: 25° C. for 5 min; 42° C. for 60 min; 50° C. for 60 min; and 75° C. for 10 min. Reactions were diluted to a final volume of 80 μl with water and used for qPCR.
qPCR was conducted using FAST SYBR green master mix (ABI; Foster City, Calif.) according to manufacturer's directions. […]
The stability of a panel of known NMD target mRNAs in human MCF7 breast cancer cells during doxorubicin treatment was examined. […] To support this, the level of each mRNA was measured relative to the level of the pre-mRNA from which it derives as a function of time after doxorubicin treatment to control for transcriptional effects. […]
Background: Real-time PCR tracks product formation cycle by cycle.

In the case of `COc1cccc2c1C(=O)c1c(O)c3c(c(O)c1C2=O)C[C@@](O)(C(=O)CO)C[C@@H]3O[C@H]1C[C@H](N)[C@H](O)[C@H](C)O1` [doxorubicin, Doxorubicin], the “mRNA/pre-mRNA ratio of PANK2, TSTD2, NAT9” value was “increases for all three transcripts”. In addition, under “5 h”, the “CDKN1A mRNA/pre-mRNA ratio increase relative to 0 h” value is around 5.7 fold and the “CDKN1A pre-mRNA level decrease” value was around 3.2 fold. The “mRNA/pre-mRNA ratios of CDKN1A, GADD45α, and GADD45β” value (by 5 h) was “significantly increased”.
